# pIC50: −log10 of the molar value.
# Experiments:
# Staph. aureus = test: Aerobic antibacterial assay (agar dilution, Mueller-Hinton agar); settings: aerobic, 24 hours at 37° C.
# Propionibact. acnes = test: Anerobic antibacterial assay (agar dilution, Wilkins-Chalgren agar); format: cell-based; settings: anaerobic, 48 hours at 37° C.
# Bact. vulgatus = test: as above; format: cell-based; settings: Bact. vulgatus 1446; anaerobic; 48 hours at 37° C.
# Klebsiella spp. = test: Aerobic antibacterial assay (agar dilution, Mueller-Hinton agar); settings: aerobic, 24 hours at 37° C.
# S. typhimurium = test: as above; settings: S. typhimurium; aerobic; 24 hours at 37° C.
# [1] = test system: female Swiss Webster mice; test: TPA-induced ear edema assay; format: in vivo; settings: 10 μg/ear topical, after about 5 hours
# Protocol: In the TPA-induced ear edema assay, TPA (12-O-tetradecanoylphorbol-13-acetate) was dissolved in 30/70 propylene glycol/ethanol and was applied to the right ear of groups of 6 female Swiss Webster mice, which were housed together in a cage under standard conditions for 1 week prior to use with food and water ad lib, at a volume of 20 μl so that a total of 10 μg of TPA is delivered to the inner and outer surfaces of the ear. The test compound was dissolved in the vehicle and was applied to the right ear (the inner and outer surface) at a volume of 20 μl so that a total of 10 μg of the compound was delivered to the ear. After about 5 hours, the animals were sacrificed, a 4 mm diameter plug was taken from each ear and weighed. The difference between the right and left ear plug weights for each animal was determined. The antiinflammatory activity of the test compound is expressed as the mean percent change in the ear plug weight of the treated animals compared to the mean percent change in the plug weight of the control animals.
# Bact. distasonis = test: Anerobic antibacterial assay (agar dilution, Wilkins-Chalgren agar); format: cell-based; settings: Bact. distasonis 1366; anaerobic; 48 hours at 37° C.
# E. coli = test: Aerobic antibacterial assay (agar dilution, Mueller-Hinton agar); format: cell-based
# Strept. faecium = test: as above; settings: Strept. faecium D; aerobic; 24 hours at 37° C.
# Fusobact. varium = test: Anerobic antibacterial assay (agar dilution, Wilkins-Chalgren agar); format: cell-based; settings: anaerobic, 48 hours at 37° C.
# Peptostr. anaerobius = test: as above; format: cell-based; settings: Peptostr. anaerobius 932; anaerobic; 48 hours at 37° C.
# Protein kinase C = Protein kinase C assay (32P incorporation into Type III histone); format: biochemical, rat; settings: rat brain protein kinase C; phosphatidylserine/diacylglycerol stimulated; read-out: Protein Kinase Inhibitory Activity IC50
# Protocol: (see U. Kikkawa, et al., Biochemical and Biophysical Research Communications, 135, 636 (1986) and R. M. Bell, et al. “Methods in Enzymology, Hormone Action,” Part J, P.M. Conn, Ed., Academic Press, Inc., New York, N.Y. 1986, page 353). Protein kinase C enzyme extract was prepared from the brain of male Wistar rats weighing 180 to 200 g and purified by the method of U. Kikkawa, et al., ibid. 636. The purified extract was stored at −80° C., and aliquots were used in the protein kinase C assay performed by a modification of the method of R. M. Bell, et al., ibid. al 354. To perform the assay, duplicate aliquots of duplicate samples are employed. Basal or unstimulated protein kinase C, phosphatidylserine/diacylglycerol stimulated protein kinase C, and test samples are run in each assay. […] The assay tubes were allowed to warm to 25° C. and an 8 μl mixture of adenosine 5′-triphosphate (100 μM) and ^32P-adenosine triphosphate (1 to 2×10^5 counts per minute) was added to each tube for a final volume of 80 μl per tube. After 2 min, the reaction (the incorporation of phosphorous into Type III histone) was terminated by spotting the assay mixture on phosphocellulose paper. The spots are cut out of the paper and the radioactivity (counts per min) of each spot was determined in a scintillation counter.
# E. cloacae = test: Aerobic antibacterial assay (agar dilution, Mueller-Hinton agar); settings: aerobic, 24 hours at 37° C.
# [2] = test system: female Swiss Webster mice; test: Arachidonic acid-induced ear edema assay; format: in vivo; settings: 1 mg/ear topical, arachidonic acid 4 mg/ear
# Protocol: In the arachidonic acid-induced ear edema assay, the test compound was dissolved in 30/70 propylene glycol/ethanol and was applied to both ears of groups of 6 female Swiss Webster mice, which were housed together in a cage under standard conditions for 1 week prior to use with food and water ad lib, at a volume of 20 μl so that a total of 1.0 mg of test compound was delivered to each ear over the inner and outer surfaces. The same volume (20 μl) of vehicle was applied to each ear of a control group of mice. After 30 minutes, arachidonic acid was applied to the right ear of each mouse of each group in the amount of 4 mg/ear. Vehicle was applied to the left ear of each mouse of each group at a volume of 20 μl/ear. After an additional hour, the mice were sacrificed and a 4 mm plug was taken from each ear and weighed. The difference between the right and left ear plugs was determined for each animal. The antiinflammatory activity of the test compound is expressed as the mean percent change in the ear plug weight of the treated animals relative to the mean percent change in weights of control animals' ear. Antiinflammatory activity of representative compounds of the present invention as determined in this assay are presented below in Table 3.
# Bact. thetaiotaom. = test: Anerobic antibacterial assay (agar dilution, Wilkins-Chalgren agar); format: cell-based; settings: anaerobic, 48 hours at 37° C.
# Clost. perfringens = test: microbe, parasite or virus in culture; format: cell-based; settings: Clost. perfringens 194; anaerobic; 48 hours at 37° C.
# Bact. fragilis = test: Anerobic antibacterial assay (agar dilution, Wilkins-Chalgren agar); format: cell-based; settings: anaerobic, 48 hours at 37° C.
# Bact. ovatus = test: as above; format: cell-based; settings: Bact. ovatus 103; anaerobic; 48 hours at 37° C.
# Clost. tetani = test: as above; format: cell-based; settings: Clost. tetani 19406; anaerobic; 48 hours at 37° C.
# Strept. pyogenes = test: Aerobic antibacterial assay (agar dilution, Mueller-Hinton agar); settings: aerobic, 24 hours at 37° C.
compound,measurement,setting,value
"CCCCCCCCCCCCC/C=C/[C@@H](O)[C@@H](N)CO [D-erythro-sphingosine, reference compound]","Antibacterial activity (MIC, mg/l)",Staph. aureus; Staph. aureus 285,25.0 mg/L
same,"Antibacterial activity (MIC, mg/l)",Staph. aureus; Staph. aureus 503,25.0 mg/L
same,"Antibacterial activity (MIC, mg/l)",Staph. aureus; Staph. aureus SG511,25.0 mg/L
same,"Antibacterial activity (MIC, mg/l)",Propionibact. acnes; Propionibact. acnes 6919,12.5 mg/L
same,"Antibacterial activity (MIC, mg/l)",Propionibact. acnes; Propionibact. acnes 6922,12.5 mg/L
same,"Antibacterial activity (MIC, mg/l)",Bact. vulgatus,25.0 mg/L
same,"Antibacterial activity (MIC, mg/l)",Klebsiella spp.; Klebsiella spp. 1082E,25.0 mg/L
same,"Antibacterial activity (MIC, mg/l)",Klebsiella spp.; Klebsiella spp. 1522E,>100.0 mg/L
same,"Antibacterial activity (MIC, mg/l)",S. typhimurium,>100.0 mg/L
same,Antiinflammatory Activity Percent Decrease in Ear Plug Weight at 10 μg/ear,[1],46%
same,"Antibacterial activity (MIC, mg/l)",Bact. distasonis,12.5 mg/L
same,"Antibacterial activity (MIC, mg/l)","E. coli; E. coli 1507E, 24 hours at 37° C.",>100.0 mg/L
same,"Antibacterial activity (MIC, mg/l)","E. coli; E. coli DC0, 24 hours at 37° C.",>100.0 mg/L
same,"Antibacterial activity (MIC, mg/l)","E. coli; E. coli DC2, 24 hours at 37° C.",25.0 mg/L
same,"Antibacterial activity (MIC, mg/l)","E. coli; E. coli O 78, 24 hours at 37° C.",>100.0 mg/L
same,"Antibacterial activity (MIC, mg/l)","E. coli; E. coli TEM, 24 hours at 37° C.",>100.0 mg/L
same,"Antibacterial activity (MIC, mg/l)",Strept. faecium,25.0 mg/L
same,"Antibacterial activity (MIC, mg/l)",Fusobact. varium; Fusobact. varium 3085,25.0 mg/L
same,"Antibacterial activity (MIC, mg/l)",Fusobact. varium; Fusobact. varium 5262,25.0 mg/L
same,"Antibacterial activity (MIC, mg/l)",Peptostr. anaerobius,12.5 mg/L
same,pIC50,Protein kinase C,5.17
same,"Antibacterial activity (MIC, mg/l)",E. cloacae; E. cloacae 1321E,50.0 mg/L
same,"Antibacterial activity (MIC, mg/l)",E. cloacae; E. cloacae P99,>100.0 mg/L
same,Antiinflammatory Activity Percent Decrease in Ear Plug Weight at 1 mg/ear,[2],+9%
same,"Antibacterial activity (MIC, mg/l)",Bact. thetaiotaom.; Bact. thetaiotaom. 123,25.0 mg/L
same,"Antibacterial activity (MIC, mg/l)",Bact. thetaiotaom.; Bact. thetaiotaom. 1428,25.0 mg/L
same,"Antibacterial activity (MIC, mg/l)",Bact. thetaiotaom.; Bact. thetaiotaom. 1445,25.0 mg/L
same,"Antibacterial activity (MIC, mg/l)",Clost. perfringens,6.25 mg/L
same,"Antibacterial activity (MIC, mg/l)",Bact. fragilis; Bact. fragilis 312,25.0 mg/L
same,"Antibacterial activity (MIC, mg/l)",Bact. fragilis; Bact. fragilis 960,12.5 mg/L
same,"Antibacterial activity (MIC, mg/l)",Bact. fragilis; Bact. fragilis 1313,25.0 mg/L
same,"Antibacterial activity (MIC, mg/l)",Bact. fragilis; Bact. fragilis 17390,25.0 mg/L
same,"Antibacterial activity (MIC, mg/l)",Bact. fragilis; Bact. fragilis 18125,25.0 mg/L
same,"Antibacterial activity (MIC, mg/l)",Bact. fragilis; Bact. fragilis 19016,25.0 mg/L
same,"Antibacterial activity (MIC, mg/l)",Bact. ovatus,12.5 mg/L
same,"Antibacterial activity (MIC, mg/l)",Clost. tetani,50.0 mg/L
same,"Antibacterial activity (MIC, mg/l)",Strept. pyogenes; Strept. pyogenes 77 A,25.0 mg/L
same,"Antibacterial activity (MIC, mg/l)",Strept. pyogenes; Strept. pyogenes 308 A,12.5 mg/L
